Measured values reported in the supplement of paper PMC13207355.

Legend:
Conditions in all cases: exposure time: 72 h
E28 [1] = patient-derived glioblastoma stem cells of classical subtype; experiment: phenotypic distance (Euclidean, principal components) from DMSO controls (arbitrary units); higher = stronger morphological change
FT3469 [2] = normal neural stem cell line; experiment: as above
E21 [3] = patient-derived glioblastoma stem cells of mesenchymal subtype; experiment: as above
E34 [4] = patient-derived glioblastoma stem cells of proneural subtype; experiment: as above
E13 [5] = patient-derived glioblastoma stem cells of classical subtype; experiment: as above
E57 [6] = patient-derived glioblastoma stem cells of mesenchymal subtype; experiment: as above
E31 [7] = patient-derived glioblastoma stem cells of proneural subtype; experiment: as above
E28 [8] = experiment: surviving fraction (nuclei count normalised to DMSO); higher = more cells surviving (less toxic)
FT3469 [9] = experiment: as above
E21 [10] = experiment: as above
E34 [11] = experiment: as above
E13 [12] = experiment: as above
E57 [13] = experiment: as above
E31 [14] = experiment: as above
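Throughout, for phenotypic distance (Euclidean, principal components) from DMSO controls: cell Painting imaging in 384-well plates, CellProfiler features reduced to at least 20 principal components, Euclidean distance versus same-plate DMSO vehicle wells (0.1% v/v), median over six images per well.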
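Throughout, for surviving fraction (nuclei count normalised to DMSO): nuclei counted by high-content imaging of Hoechst-stained cells in laminin-coated 384-well plates, relative to 0.1% DMSO vehicle wells, with staurosporine as cell-death control.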

COc1cc(NS(C)(=O)=O)ccc1Nc1c2ccccc2nc2ccccc12 [Amsacrine]
Conditions | phenotypic distance | surviving fraction
E13 [5], 4.1 nM | 0.565 | –
E13 [5], 12.3 nM | 1.43 | –
E13 [5], 37 nM | 4.51 | –
E13 [5], 111.1 nM | 6.51 | –
E13 [5], 333.3 nM | 6.57 | –
E13 [5], 1000 nM | 6.84 | –
E13 [5], 3000 nM | 7.75 | –
E13 [12], 4.1 nM | – | 0.946
E13 [12], 12.3 nM | – | 0.807
E13 [12], 37 nM | – | 0.489
E13 [12], 111.1 nM | – | 0.414
E13 [12], 333.3 nM | – | 0.414
E13 [12], 1000 nM | – | 0.387
E13 [12], 3000 nM | – | 0.132
E21 [3], 4.1 nM | 0.893 | –
E21 [3], 12.3 nM | 1.83 | –
E21 [3], 37 nM | 2.5 | –
E21 [3], 111.1 nM | 6.57 | –
E21 [3], 333.3 nM | 6.68 | –
E21 [3], 1000 nM | 5.68 | –
E21 [3], 3000 nM | 7.87 | –
E21 [10], 4.1 nM | – | 0.908
E21 [10], 12.3 nM | – | 1.08
E21 [10], 37 nM | – | 0.72
E21 [10], 111.1 nM | – | 0.45
E21 [10], 333.3 nM | – | 0.388
E21 [10], 1000 nM | – | 0.197
E21 [10], 3000 nM | – | 0.0813
E28 [1], 4.1 nM | 1.15 | –
E28 [1], 12.3 nM | 2.1 | –
E28 [1], 37 nM | 3.15 | –
E28 [1], 111.1 nM | 2.93 | –
E28 [1], 333.3 nM | 3.24 | –
E28 [1], 1000 nM | 3.28 | –
E28 [1], 3000 nM | 4.07 | –
E28 [8], 4.1 nM | – | 0.875
E28 [8], 12.3 nM | – | 0.529
E28 [8], 37 nM | – | 0.427
E28 [8], 111.1 nM | – | 0.474
E28 [8], 333.3 nM | – | 0.374
E28 [8], 1000 nM | – | 0.467
E28 [8], 3000 nM | – | 0.126
E31 [7], 4.1 nM | 1.63 | –
E31 [7], 12.3 nM | 3.02 | –
E31 [7], 37 nM | 3.7 | –
E31 [7], 111.1 nM | 3.82 | –
E31 [7], 333.3 nM | 2.97 | –
E31 [7], 1000 nM | 3 | –
E31 [7], 3000 nM | 6.79 | –
E31 [14], 4.1 nM | – | 0.573
E31 [14], 12.3 nM | – | 0.509
E31 [14], 37 nM | – | 0.314
E31 [14], 111.1 nM | – | 0.247
E31 [14], 333.3 nM | – | 0.288
E31 [14], 1000 nM | – | 0.244
E31 [14], 3000 nM | – | 0.0342
E34 [4], 4.1 nM | 0.614 | –
E34 [4], 12.3 nM | 1.45 | –
E34 [4], 37 nM | 2.78 | –
E34 [4], 111.1 nM | 6.15 | –
E34 [4], 333.3 nM | 5.83 | –
E34 [4], 1000 nM | 4.78 | –
E34 [4], 3000 nM | 3.81 | –
E34 [11], 4.1 nM | – | 0.977
E34 [11], 12.3 nM | – | 0.867
E34 [11], 37 nM | – | 0.823
E34 [11], 111.1 nM | – | 0.552
E34 [11], 333.3 nM | – | 0.493
E34 [11], 1000 nM | – | 0.484
E34 [11], 3000 nM | – | 0.379
E57 [6], 4.1 nM | 0.741 | –
E57 [6], 12.3 nM | 2.05 | –
E57 [6], 37 nM | 4.75 | –
E57 [6], 111.1 nM | 10.6 | –
E57 [6], 333.3 nM | 10.7 | –
E57 [6], 1000 nM | 8.66 | –
E57 [6], 3000 nM | 6.92 | –
E57 [13], 4.1 nM | – | 0.935
E57 [13], 12.3 nM | – | 0.759
E57 [13], 37 nM | – | 0.484
E57 [13], 111.1 nM | – | 0.21
E57 [13], 333.3 nM | – | 0.192
E57 [13], 1000 nM | – | 0.161
E57 [13], 3000 nM | – | 0.0825
FT3469 [2], 4.1 nM | 0.866 | –
FT3469 [2], 12.3 nM | 1.42 | –
FT3469 [2], 37 nM | 1.99 | –
FT3469 [2], 111.1 nM | 2.25 | –
FT3469 [2], 333.3 nM | 2.14 | –
FT3469 [2], 1000 nM | 2.2 | –
FT3469 [2], 3000 nM | 3.03 | –
FT3469 [9], 4.1 nM | – | 0.745
FT3469 [9], 12.3 nM | – | 0.751
FT3469 [9], 37 nM | – | 0.593
FT3469 [9], 111.1 nM | – | 0.731
FT3469 [9], 333.3 nM | – | 0.745
FT3469 [9], 1000 nM | – | 0.645
FT3469 [9], 3000 nM | – | 0.363

COc1cc2c(cc1-c1c(C)noc1C)ncc1[nH]c(=O)n([C@H](C)c3ccccn3)c12
Conditions | phenotypic distance | surviving fraction
E13 [5], 4.1 nM | 0.723 | –
E13 [5], 12.3 nM | 0.923 | –
E13 [5], 37 nM | 3.5 | –
E13 [5], 111.1 nM | 1.73 | –
E13 [5], 333.3 nM | 2.84 | –
E13 [5], 1000 nM | 3.74 | –
E13 [5], 3000 nM | 3.72 | –
E13 [12], 4.1 nM | – | 0.96
E13 [12], 12.3 nM | – | 0.821
E13 [12], 37 nM | – | 0.885
E13 [12], 111.1 nM | – | 0.757
E13 [12], 333.3 nM | – | 0.79
E13 [12], 1000 nM | – | 0.562
E13 [12], 3000 nM | – | 0.473
E21 [3], 4.1 nM | 0.956 | –
E21 [3], 12.3 nM | 0.64 | –
E21 [3], 37 nM | 0.943 | –
E21 [3], 111.1 nM | 1.42 | –
E21 [3], 333.3 nM | 2.79 | –
E21 [3], 1000 nM | 4.44 | –
E21 [3], 3000 nM | 6.05 | –
E21 [10], 4.1 nM | – | 0.942
E21 [10], 12.3 nM | – | 1.05
E21 [10], 37 nM | – | 0.96
E21 [10], 111.1 nM | – | 0.873
E21 [10], 333.3 nM | – | 0.78
E21 [10], 1000 nM | – | 0.567
E21 [10], 3000 nM | – | 0.391
E28 [1], 4.1 nM | 0.949 | –
E28 [1], 12.3 nM | 0.901 | –
E28 [1], 37 nM | 0.621 | –
E28 [1], 111.1 nM | 1.03 | –
E28 [1], 333.3 nM | 1.35 | –
E28 [1], 1000 nM | 1.72 | –
E28 [1], 3000 nM | 1.77 | –
E28 [8], 4.1 nM | – | 1.05
E28 [8], 12.3 nM | – | 0.934
E28 [8], 37 nM | – | 1.14
E28 [8], 111.1 nM | – | 0.933
E28 [8], 333.3 nM | – | 0.976
E28 [8], 1000 nM | – | 0.652
E28 [8], 3000 nM | – | 0.782
E31 [7], 4.1 nM | 0.332 | –
E31 [7], 12.3 nM | 0.436 | –
E31 [7], 37 nM | 0.51 | –
E31 [7], 111.1 nM | 0.757 | –
E31 [7], 333.3 nM | 0.725 | –
E31 [7], 1000 nM | 1.98 | –
E31 [7], 3000 nM | 2.07 | –
E31 [14], 4.1 nM | – | 1.12
E31 [14], 12.3 nM | – | 0.852
E31 [14], 37 nM | – | 1.18
E31 [14], 111.1 nM | – | 0.997
E31 [14], 333.3 nM | – | 1.22
E31 [14], 1000 nM | – | 0.817
E31 [14], 3000 nM | – | 0.628
E34 [4], 4.1 nM | 1.02 | –
E34 [4], 12.3 nM | 0.609 | –
E34 [4], 37 nM | 0.687 | –
E34 [4], 111.1 nM | 1.15 | –
E34 [4], 333.3 nM | 1.46 | –
E34 [4], 1000 nM | 1.79 | –
E34 [4], 3000 nM | 2.96 | –
E34 [11], 4.1 nM | – | 0.897
E34 [11], 12.3 nM | – | 1.11
E34 [11], 37 nM | – | 0.994
E34 [11], 111.1 nM | – | 0.972
E34 [11], 333.3 nM | – | 1.03
E34 [11], 1000 nM | – | 0.882
E34 [11], 3000 nM | – | 0.683
E57 [6], 4.1 nM | 4.06 | –
E57 [6], 12.3 nM | 7.45 | –
E57 [6], 37 nM | 0.734 | –
E57 [6], 111.1 nM | 1.05 | –
E57 [6], 333.3 nM | 1.91 | –
E57 [6], 1000 nM | 3.16 | –
E57 [6], 3000 nM | 3.48 | –
E57 [13], 4.1 nM | – | 1.04
E57 [13], 12.3 nM | – | 0.964
E57 [13], 37 nM | – | 1.14
E57 [13], 111.1 nM | – | 1.08
E57 [13], 333.3 nM | – | 0.915
E57 [13], 1000 nM | – | 0.653
E57 [13], 3000 nM | – | 0.533
FT3469 [2], 4.1 nM | 1.21 | –
FT3469 [2], 12.3 nM | 1.17 | –
FT3469 [2], 37 nM | 1.25 | –
FT3469 [2], 111.1 nM | 1.2 | –
FT3469 [2], 333.3 nM | 1.04 | –
FT3469 [2], 1000 nM | 1.53 | –
FT3469 [2], 3000 nM | 3.06 | –
FT3469 [9], 4.1 nM | – | 0.954
FT3469 [9], 12.3 nM | – | 0.984
FT3469 [9], 37 nM | – | 0.981
FT3469 [9], 111.1 nM | – | 0.987
FT3469 [9], 333.3 nM | – | 0.837
FT3469 [9], 1000 nM | – | 0.73
FT3469 [9], 3000 nM | – | 0.654
